From article PMC2119205 (The Journal of Experimental Medicine, 1992)
pEC50: −log10 of the molar value.

How the values were obtained:
[1] = test system: antigen presentation by LNC to T cell hybridoma 1C5.1; assay: Chloroquine treatment of irradiated LNC before T hybridoma activation; assay type: cell-based; conditions: C3H mice primed with 14 nmol/mouse HEL in CFA, 10^6 LNC/well; chloroquine 1-100 µM, hybridoma 1C5.1 (Fig. 3)
I-Ak molecules = conditions: cited from earlier work
I-Ek molecules = conditions: cited from earlier work
I-Ed molecules = conditions: cited from earlier work
T cell response = conditions: cited from earlier work
[2] = test system: T cell hybridoma 1C5.1 (I-Ak/HEL 46-61); assay type: cell-based, mouse; conditions: read-out: Responsiveness: amount of HEL or peptide inducing 50% of the maximal response; hybridoma 1C5.1, restriction Ak; LK-35.2 cells as APC; mean of three to four experiments
[3] = test system: T cell hybridoma 3A9 (I-Ak/HEL 46-61); assay type: cell-based, mouse; conditions: read-out: Responsiveness: amount of HEL or peptide inducing 50% of the maximal response; hybridoma 3A9, restriction Ak; LK-35.2 cells as APC; mean of three to four experiments
[4] = test system: T cell hybridoma 2D4.1 (I-Ak/HEL 112-129); assay type: cell-based, mouse; conditions: read-out: Responsiveness: amount of HEL or peptide inducing 50% of the maximal response; hybridoma 2D4.1, restriction Ak; LK-35.2 cells as APC; mean of three to four experiments
[5] = test system: T cell hybridoma 1H11.3 (I-Ed/HEL 108-116); assay type: cell-based, mouse; conditions: read-out: Responsiveness: amount of HEL or peptide inducing 50% of the maximal response; hybridoma 1H11.3, restriction Ed; LK-35.2 cells as APC; mean of three to four experiments
[6] = test system: T cell hybridoma 2G7.1 (I-Ek/HEL 1-18); assay type: cell-based, mouse; conditions: read-out: Responsiveness: amount of HEL or peptide inducing 50% of the maximal response; hybridoma 2G7.1, restriction Ek; LK-35.2 cells as APC; mean of three to four experiments
[7] = test system: T cell hybridoma 1C5.1 (I-Ak/HEL 46-61); assay type: in vivo, C3H mice; conditions: LNC from HEL-primed mice (not shown)
[8] = test system: T cell hybridoma 3A9 (I-Ak/HEL 46-61); assay type: in vivo, C3H and DBA/2 mice; conditions: C3H (H-2k) mice, 7 nmol/mouse HEL-CFA, LNC day 8, no antigen added (Fig. 1)
[9] = test system: T cell hybridoma 1H11.3 (I-Ed/HEL 108-116); assay type: in vivo, C3H and DBA/2 mice; conditions: DBA/2 (H-2d) mice, 7 nmol/mouse HEL-CFA, LNC day 8, no antigen added (Fig. 1)

Which “Effect on antigen presentation by LNC from HEL-primed mice” value [1] does the source give for CCN(CC)CCCC(C)Nc1ccnc2cc(Cl)ccc12 (centres unmarked) [chloroquine] here?
Its value is “failsto interfere”.

For CNDGRTPGSRNLCN [HEL 64-77], which “Binding to I-Ak” value (I-Ak molecules) is on record?
Its value is “does not bind”.

For DRGDQSTDYGIFQINSR [ML 46-62], which “Binding to I-Ak molecules” value (I-Ak molecules) is on record?
Its value is “binds strongly”.

And the “Binding to I-Ek molecules” value (I-Ek molecules)?
The value was “failsto bind”.

What about the “Binding to I-Ed molecules” value (I-Ed molecules) of the same molecule?
Its value is “failsto bind”.

What about the Immunogenicity in mice (T cell response) of the same molecule?
Its Immunogenicity in mice is “nonimmunogenic”.

With hen egg white lysozyme [HEL] as the molecule, how does the pEC50 [2] read?
The pEC50 was 6.52.

And the pEC50 [3]?
Its pEC50 is 7.70.

And the pEC50 [4]?
Its pEC50 is 6.52.

And the pEC50 [5]?
The pEC50 was 6.30.

What about the pEC50 [6] of the same molecule?
The pEC50 was 6.52.

And the “Time after immunization of maximal antigen-presenting activity in LNC” value [7]?
Its value is 8 days.

And the “IL-2 production by 3A9 induced by LNC from primed mice” value [8]?
Its value is “induce”.

What about the “IL-2 production by 1H11.3 induced by LNC from primed mice” value [9] of the same molecule?
Its value is “induce”.
